How the values were obtained:
Urotensin-2 receptor [1] = target: T1, Urotensin-2 receptor (Homo sapiens, UniProt Q9UKP6); test: Binding affinity using [125I]hU-II radioligand binding assay in HEK293 cell membranes expressing human Urotensin 2 receptor
T1 sequence (Q9UKP6 whole entry): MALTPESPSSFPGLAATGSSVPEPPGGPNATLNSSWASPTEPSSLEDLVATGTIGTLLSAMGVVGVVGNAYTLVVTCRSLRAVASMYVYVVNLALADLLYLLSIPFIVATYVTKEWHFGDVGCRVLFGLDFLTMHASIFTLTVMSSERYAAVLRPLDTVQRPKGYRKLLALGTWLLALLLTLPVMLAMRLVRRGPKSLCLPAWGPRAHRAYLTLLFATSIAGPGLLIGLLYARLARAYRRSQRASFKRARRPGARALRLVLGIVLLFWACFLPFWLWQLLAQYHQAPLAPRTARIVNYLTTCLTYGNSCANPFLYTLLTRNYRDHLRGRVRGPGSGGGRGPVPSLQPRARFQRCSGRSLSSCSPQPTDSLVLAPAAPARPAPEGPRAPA

Urotensin-2 receptor [2] = target: T1, Urotensin-2 receptor; test: (§1) Inhibition of hU-II-mediated [Ca2+]i mobilization in HEK293 cells expressing human recombinant Urotensin 2 receptor in FLIPR assay; type: functional, cell-based
Urotensin-2 receptor [3] = target: T1, Urotensin-2 receptor; test: as §1; type: cell-based
Urotensin-2 receptor [4] = target: T2, Urotensin-2 receptor (Rattus norvegicus, UniProt P49684); test: Binding affinity for rat urotensin-2 receptor
T2 sequence (P49684 whole entry): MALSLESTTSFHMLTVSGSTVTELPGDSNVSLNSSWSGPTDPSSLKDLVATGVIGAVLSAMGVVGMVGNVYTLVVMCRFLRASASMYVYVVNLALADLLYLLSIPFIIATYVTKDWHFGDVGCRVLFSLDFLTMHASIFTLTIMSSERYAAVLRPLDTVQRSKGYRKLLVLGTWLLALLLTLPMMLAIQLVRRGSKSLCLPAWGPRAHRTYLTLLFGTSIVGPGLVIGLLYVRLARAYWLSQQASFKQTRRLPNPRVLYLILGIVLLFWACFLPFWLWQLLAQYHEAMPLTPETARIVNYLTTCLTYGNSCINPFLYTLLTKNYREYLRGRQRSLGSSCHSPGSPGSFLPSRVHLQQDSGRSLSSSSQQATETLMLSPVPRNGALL

Urotensin-2 receptor [5] = target: T3, Urotensin-2 receptor (Macaca mulatta, UniProt Q8HYC3); test: Binding affinity for monkey urotensin-2 receptor
T3 sequence (Q8HYC3 whole entry): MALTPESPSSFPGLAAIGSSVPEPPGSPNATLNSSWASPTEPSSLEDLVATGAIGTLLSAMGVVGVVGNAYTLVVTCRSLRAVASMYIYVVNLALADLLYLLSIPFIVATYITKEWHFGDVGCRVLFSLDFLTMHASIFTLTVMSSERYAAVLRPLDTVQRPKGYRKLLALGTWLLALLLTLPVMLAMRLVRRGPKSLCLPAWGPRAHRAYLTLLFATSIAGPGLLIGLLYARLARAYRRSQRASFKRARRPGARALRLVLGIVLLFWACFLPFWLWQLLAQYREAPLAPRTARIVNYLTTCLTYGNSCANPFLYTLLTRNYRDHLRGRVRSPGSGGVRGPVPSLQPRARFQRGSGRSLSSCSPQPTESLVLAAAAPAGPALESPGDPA

In the case of `Cc1ccc(C(=O)N[C@H]2CCN(Cc3ccc(OCCCN(C)C)cc3)C2)cc1C`, the Ki (Urotensin-2 receptor [1]) is reported as > 10000 nM.

Work on `CC(C)C[C@H](NC(=O)c1ccccc1)C(=O)N[C@H]1CCN(Cc2ccc(OCCCN(C)C)cc2)C1` yielded a Ki (Urotensin-2 receptor [1]) of 501 nM.

In the case of `CN(C)CCCOc1ccc(CN2CC[C@H](NC(=O)CNC(=O)c3ccc(Cl)c(Cl)c3)C2)cc1`, the Ki (Urotensin-2 receptor [1]) is reported as > 10000 nM.

With `CC(C)C[C@H](NC(=O)c1cc2ccccc2s1)C(=O)NC1CCN(Cc2ccc(OCCCN(C)C)cc2)C1` (single isomer, unassigned; 2b) the Ki (Urotensin-2 receptor [1]) was > 10000 nM.

Compound `CC(C)C[C@@H](NC(=O)c1cc2ccccc2o1)C(=O)NC1CCN(Cc2ccc(OCCCN(C)C)cc2)C1` (single isomer, unassigned) has a Ki (Urotensin-2 receptor [1]) of 3160 nM.

`CN(C)CCCOc1ccc(CN2CC[C@H](NC(=O)c3ccc(C#N)cc3)C2)cc1` was tested, and the Ki (Urotensin-2 receptor [1]) was > 10000 nM.

`CN(C)CCCOc1ccc(CN2CC[C@H](NC(=O)c3cc4ccccc4o3)C2)cc1` gave a Ki (Urotensin-2 receptor [1]) of 2510 nM.

`CC(=O)N[C@@H](CC(C)C)C(=O)N[C@H]1CCN(Cc2ccc(OCCCN(C)C)cc2)C1` gave a Ki (Urotensin-2 receptor [1]) of 2510 nM.

In the case of `Cc1cc(C(=O)N[C@H]2CCN(Cc3ccc(OCCCN(C)C)cc3)C2)ccc1Br`, the Ki (Urotensin-2 receptor [1]) is reported as 631 nM.

In the case of `CN(C)CCCOc1ccc(CN2CC[C@H](NC(=O)c3ccc(Br)cc3)C2)cc1`, the Ki (Urotensin-2 receptor [1]) is reported as 316 nM.

`CC(C)[C@H](NC(=O)c1ccc(Cl)c(Cl)c1)C(=O)N[C@H]1CCN(Cc2ccc(OCCCN(C)C)cc2)C1` was tested, and the Ki (Urotensin-2 receptor [1]) was 794 nM.

`CC(C)C[C@H](NC(=O)c1ccc(Cl)c(Cl)c1)C(=O)N[C@H]1CCN(Cc2ccc(OCCCN(C)C)cc2)C1` gave a Ki (Urotensin-2 receptor [1]) of 126 nM.

For `CC(C)C[C@H](NC(=O)c1cc2ccccc2o1)C(=O)NC1CCN(Cc2ccc(OCCCN(C)C)cc2)C1` (single isomer, unassigned; 2c), the Ki (Urotensin-2 receptor [1]) was 158 nM.

Work on `CN(C)CCCOc1ccc(CN2CC[C@H](NC(=O)c3ccccc3)C2)cc1` yielded a Ki (Urotensin-2 receptor [1]) of 2510 nM.

In the case of `CC(C)C[C@H](NC(=O)c1ccc2c(c1)OCO2)C(=O)N[C@H]1CCN(Cc2ccc(OCCCN(C)C)cc2)C1`, the Ki (Urotensin-2 receptor [1]) is reported as 501 nM.

With `CN(C)CCCOc1ccc(CN2CC[C@H](NC(=O)c3ccncc3)C2)cc1` the Ki (Urotensin-2 receptor [1]) was > 10000 nM.

`CN(C)CCCOc1ccc(CN2CC[C@H](NC(=O)c3ccc4ccccc4c3)C2)cc1` was tested, and the Ki (Urotensin-2 receptor [1]) was > 10000 nM.

`CC(C)C[C@H](NC(=O)c1ccc2ccccc2n1)C(=O)N[C@H]1CCN(Cc2ccc(OCCCN(C)C)cc2)C1` was tested, and the Ki (Urotensin-2 receptor [1]) was 631 nM.

For `CN(C)CCCOc1ccc(CN2CC[C@H](NC(=O)c3ccc4c(c3)OCO4)C2)cc1`, the Ki (Urotensin-2 receptor [1]) was 2510 nM.

For `CN(C)CCCOc1ccc(CN2CC[C@H](NC(=O)c3cccs3)C2)cc1`, the Ki (Urotensin-2 receptor [1]) was > 10000 nM.

With `CC(=O)N[C@H]1CCN(Cc2ccc(OCCCN(C)C)cc2)C1` the Ki (Urotensin-2 receptor [1]) was > 10000 nM.

`CC(C)C[C@H](NC(=O)Nc1ccccc1)C(=O)N[C@H]1CCN(Cc2ccc(OCCCN(C)C)cc2)C1` gave a Ki (Urotensin-2 receptor [1]) of 1000 nM.

In the case of `CC(C)C[C@H](NC(=O)c1cc2ccccc2o1)C(=O)NC1CCN(Cc2ccc(OCCCN(C)C)cc2)C1` (single isomer, unassigned; 2d), the Ki (Urotensin-2 receptor [1]) is reported as > 10000 nM.

With `CN(C)CCCOc1ccc(CN2CC[C@H](NC(=O)c3ccc(C(F)(F)F)cc3)C2)cc1` the Ki (Urotensin-2 receptor [1]) was > 10000 nM.

`CC(C)C[C@H](NC(=O)c1cc2ccccc2s1)C(=O)NC1CCN(Cc2ccc(OCCCN(C)C)cc2)C1` (single isomer, unassigned; 2a) was tested, and the IC50 (Urotensin-2 receptor [2]) was 631 nM and the Ki (Urotensin-2 receptor [1]) was 126 nM.

`CN(C)CCCOc1ccc(CN2CC[C@H](NC(=O)[C@H](Cc3ccccc3)NC(=O)c3ccc(Cl)c(Cl)c3)C2)cc1` was tested, and the Ki (Urotensin-2 receptor [1]) was 398 nM.

For `CN(C)CCCOc1ccc(CN2CC[C@H](NC(=O)[C@H](CCCCN)NC(=O)c3ccc(Cl)c(Cl)c3)C2)cc1`, the Ki (Urotensin-2 receptor [1]) was > 10000 nM.

`CC(C)C[C@H](NC(=O)c1ccc(Br)cc1)C(=O)N[C@H]1CCN(Cc2ccc(OCCCN(C)C)cc2)C1` was tested, and the Ki (Urotensin-2 receptor [1]) was 200 nM.

`CC(C)C[C@H](NC(=O)Cc1ccc2c(c1)OCO2)C(=O)N[C@H]1CCN(Cc2ccc(OCCCN(C)C)cc2)C1` gave a Ki (Urotensin-2 receptor [1]) of 398 nM.

For `CN(C)CCCOc1ccc(CN2CC[C@H](NC(=O)c3ccco3)C2)cc1`, the Ki (Urotensin-2 receptor [1]) was > 10000 nM.

In the case of `Cc1cc(C(=O)N[C@H]2CCN(Cc3ccc(OCCCN(C)C)cc3)C2)ccc1Cl`, the Ki (Urotensin-2 receptor [1]) is reported as 631 nM.

Compound `CN(C)CCCOc1ccc(CN2CC[C@H](NC(=O)c3ccc(Cl)c(Cl)c3)C2)cc1` has an IC50 (Urotensin-2 receptor [3]) of 158 nM, a Ki (Urotensin-2 receptor [4]) of 3160 nM and a Ki (Urotensin-2 receptor [5]) of 251 nM. The Ki (Urotensin-2 receptor [1]) was 200 nM.

`CC(C)C[C@H](NC(=O)c1ccncc1)C(=O)N[C@H]1CCN(Cc2ccc(OCCCN(C)C)cc2)C1` was tested, and the Ki (Urotensin-2 receptor [1]) was 2000 nM.

In the case of `CN(C)CCCOc1ccc(CN2CC[C@H](NC(=O)[C@H](CCC(=O)O)NC(=O)c3ccc(Cl)c(Cl)c3)C2)cc1`, the Ki (Urotensin-2 receptor [1]) is reported as > 10000 nM.

Work on `CC(C)C[C@H](NC(=O)Oc1ccccc1)C(=O)N[C@H]1CCN(Cc2ccc(OCCCN(C)C)cc2)C1` yielded a Ki (Urotensin-2 receptor [1]) of 251 nM.

Compound `CC(C)C[C@H](NC(=O)c1cccs1)C(=O)N[C@H]1CCN(Cc2ccc(OCCCN(C)C)cc2)C1` has a Ki (Urotensin-2 receptor [1]) of 398 nM.

`CC(C)C[C@H](NC(=O)c1ccco1)C(=O)N[C@H]1CCN(Cc2ccc(OCCCN(C)C)cc2)C1` showed a Ki (Urotensin-2 receptor [1]) of 631 nM.

`COc1ccc(C(=O)N[C@H]2CCN(Cc3ccc(OCCCN(C)C)cc3)C2)cc1OC` was tested, and the Ki (Urotensin-2 receptor [1]) was > 10000 nM.

`CC(C)C[C@H](NC(=O)c1cc2ccccc2[nH]1)C(=O)N[C@H]1CCN(Cc2ccc(OCCCN(C)C)cc2)C1` showed a Ki (Urotensin-2 receptor [1]) of 501 nM.

`CN(C)CCCOc1ccc(CN2CC[C@H](NC(=O)c3cc(Cl)cc(Cl)c3)C2)cc1` showed a Ki (Urotensin-2 receptor [1]) of 2000 nM.

`CN(C)CCCOc1ccc(CN2CC[C@H](NC(=O)c3ccc(-c4ccccc4)cc3)C2)cc1` was tested, and the Ki (Urotensin-2 receptor [1]) was > 10000 nM.
